One experiment relates to V79. Briefly: Mammalian cell cytotoxicity test in chinese hamster V79 cells (clonogenic cytotoxicity). The settings on record: Cricetulus griseus, V79; read-out: IC50. The class given is functional, cell-based.
Experiment [1] is described as follows: Antibacterial activity against five Gram-negative bacteria. It counts as functional. Conditions: read-out: MIC.

In brackets after ≈: the same amount, converted by molar mass.

Usually IC50 stands for the concentration that gives 50% inhibition. What is called MIC is the smallest concentration in the dilution series that meets the test's criterion for growth inhibition. In the case of `O=C(O)c1cn(C2CC2)c2c(C(F)(F)F)c(N3CCCC3)c(F)cc2c1=O`, the IC50 in the experiment on V79 turned out to be 280 µg/mL (≈ 729 µM). In addition, the MIC in experiment [1] came out at 12.5 µg/mL (≈ 32.5 µM).

In the case of `CC1CN(c2c(F)cc3c(=O)c(C(=O)O)cn(C4CC4)c3c2C(F)(F)F)CCN1` (stereo not drawn), in the experiment with V79, the IC50 was determined as 220 µg/mL (≈ 532 µM). In addition, the MIC in experiment [1] was 0.6 µg/mL (≈ 1.45 µM).

Turning to `CCNCC1CCN(c2c(F)cc3c(=O)c(C(=O)O)cn(-c4ccc(F)cc4F)c3c2Cl)C1` (stereo not drawn), the IC50 in the experiment on V79 stood at 130 µg/mL (≈ 271 µM). Moreover, the MIC in experiment [1] amounted to 1.05 µg/mL (≈ 2.19 µM).

`CCNCC1CCN(c2c(F)cc3c(=O)c(C(=O)O)cn(CC4CC4)c3c2F)C1` (stereo not drawn): in the experiment on V79, the IC50 came to 240 µg/mL (≈ 592 µM). Further, the MIC in experiment [1] came out at 4.17 µg/mL (≈ 10.3 µM).
